Laboratory results reported in PubChem BioAssay AID248 (DTP/NCI, 2004).
“And” between values parts separate entries of the source, which are not always exact repeats. Identical values can stand only once. Toxic doses and inconclusive results are not listed.

Test system: L1210 leukemia ip in BDF1 mice, survival T/C
Assay: NCI In Vivo Anticancer Drug Screen. Data for tumor model L1210 Leukemia (intraperitoneal) in B6D2F1 (BDF1) mice
Details: endpoint: mean survival time, higher = longer survival
In short: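 Value reflects the ratio of survival in compound-treated mice to survival in vehicle-treated controls, with both groups carrying the same transplanted tumor.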

[1] = dose: 100.0 mg/kg/injection, schedule: Q01DX001 (ip), vehicle: saline
[2] = dose: 200.0 mg/kg/injection, schedule: Q01DX001 (ip), vehicle: saline

Q: Which T/C (dose: 0.06 mg/kg/injection, schedule: Q01DX009 (ip), vehicle: Klucel (hydroxypropylcellulose) (HPC)) does the source give for `COc1cc2c(c(OC)c1OC)-c1ccc(OC)c(=O)cc1[C@@H](NC(=O)CCl)CC2` here?
A: 108 % of control

Q: What about the T/C (dose: 0.12 mg/kg/injection, schedule: Q01DX009 (ip), vehicle: Klucel (hydroxypropylcellulose) (HPC)) of the same compound?
A: 110 % of control

Q: And the T/C (dose: 0.14 mg/kg/injection, schedule: Q01DX009 (ip), vehicle: saline)?
A: 115 % of control

Q: What about the T/C (dose: 0.18 mg/kg/injection, schedule: Q04DX003 (ip), vehicle: Klucel (hydroxypropylcellulose) (HPC)) of the same compound?
A: 102 % of control

Q: And the T/C (dose: 0.23 mg/kg/injection, schedule: Q01DX009 (ip), vehicle: saline)?
A: 121 % of control

Q: What about the T/C (dose: 0.25 mg/kg/injection, schedule: Q01DX009 (ip), vehicle: Klucel (hydroxypropylcellulose) (HPC)) of the same compound?
A: 118 % of control and 124 % of control

Q: What about the T/C (dose: 0.37 mg/kg/injection, schedule: Q04DX003 (ip), vehicle: Klucel (hydroxypropylcellulose) (HPC)) of the same compound?
A: 119 % of control

Q: What about the T/C (dose: 0.75 mg/kg/injection, schedule: Q04DX003 (ip), vehicle: Klucel (hydroxypropylcellulose) (HPC)) of the same compound?
A: 120 % of control

Q: `ClCc1ccc2c(c1)OCO2` was tested. Which T/C (dose: 100.0 mg/kg/injection, schedule: Q04DX003 (ip), vehicle: Klucel (hydroxypropylcellulose) (HPC)) did it give?
A: 104 % of control

Q: And the T/C (dose: 200.0 mg/kg/injection, schedule: Q04DX003 (ip), vehicle: Klucel (hydroxypropylcellulose) (HPC))?
A: 101 % of control

Q: And the T/C (dose: 400.0 mg/kg/injection, schedule: Q04DX003 (ip), vehicle: Klucel (hydroxypropylcellulose) (HPC))?
A: 98 % of control

Q: Which results are given for `Cc1cc([N+](=O)[O-])c(C)cc1O`?
A: T/C (dose: 75.0 mg/kg/injection, schedule: Q01DX001 (ip), vehicle: saline): 91 % of control; T/C (dose: 150.0 mg/kg/injection, schedule: Q01DX001 (ip), vehicle: saline): 94 % of control

Q: Which T/C (dose: 50.0 mg/kg/injection, schedule: Q01DX001 (ip), vehicle: saline) does the source give for `CCSc1ncc(F)c(=O)[nH]1` here?
A: 113 % of control

Q: And the T/C [1]?
A: 101 % of control

Q: And the T/C [2]?
A: 98 % of control

Q: Which results are given for `COc1ccc2c(c1)Cc1cc(NC(=O)N(CCCl)N=O)ccc1-2`?
A: T/C (dose: 10.0 mg/kg/injection, schedule: Q01DX009 (ip), vehicle: saline): 151 % of control; T/C (dose: 20.0 mg/kg/injection, schedule: Q01DX009 (ip), vehicle: saline): 175 % of control; T/C (dose: 25.0 mg/kg/injection, schedule: Q01DX001 (ip), vehicle: other): 122 % of control; T/C (dose: 33.0 mg/kg/injection, schedule: Q01DX009 (ip), vehicle: carboxymethylcellulose (CMC)): 188 % of control; T/C (dose: 45.0 mg/kg/injection, schedule: Q01DX001 (ip), vehicle: other): 123 % of control; T/C (dose: 50.0 mg/kg/injection, schedule: Q01DX009 (ip), vehicle: carboxymethylcellulose (CMC)): 163 % of control; T/C (dose: 80.0 mg/kg/injection, schedule: Q01DX009 (ip), vehicle: other): 123 % of control; T/C (dose: 177.0 mg/kg/injection, schedule: Q01DX001 (ip), vehicle: carboxymethylcellulose (CMC)): 182 % of control; T/C (dose: 177.0 mg/kg/injection, schedule: Q01DX001 (ip), vehicle: other): 154 % of control; T/C (dose: 177.0 mg/kg/injection, schedule: Q01DX009 (ip), vehicle: carboxymethylcellulose (CMC)): 107 % of control; T/C (dose: 266.0 mg/kg/injection, schedule: Q01DX001 (ip), vehicle: carboxymethylcellulose (CMC)): 178 % of control; T/C (dose: 266.0 mg/kg/injection, schedule: Q01DX001 (ip), vehicle: other): 154 % of control; T/C (dose: 266.0 mg/kg/injection, schedule: Q01DX009 (ip), vehicle: carboxymethylcellulose (CMC)): 97 % of control; T/C (dose: 400.0 mg/kg/injection, schedule: Q01DX001 (ip), vehicle: carboxymethylcellulose (CMC)): 193 % of control; T/C (dose: 400.0 mg/kg/injection, schedule: Q01DX009 (ip), vehicle: carboxymethylcellulose (CMC)): 96 % of control; T/C (dose: 600.0 mg/kg/injection, schedule: Q01DX001 (ip), vehicle: carboxymethylcellulose (CMC)): 186 % of control

Q: How did the T/C [1] turn out when `CC(=O)C(C)C(C)(C)C` (centres undefined) was run?
A: 106 % of control

Q: And the T/C [2]?
A: 92 % of control

Q: What about the T/C (dose: 400.0 mg/kg/injection, schedule: Q01DX001 (ip), vehicle: saline) of the same compound?
A: 97 % of control

Q: With `CCCN=Cc1ccccc1O.CCCN=Cc1ccccc1O.[Cu]` as the compound, how does the T/C (dose: 9.5 mg/kg/injection, schedule: Q01DX001 (ip), vehicle: other) read?
A: 94 % of control

Q: What about the T/C (dose: 19.0 mg/kg/injection, schedule: Q01DX001 (ip), vehicle: other) of the same compound?
A: 100 % of control

Q: And the T/C (dose: 38.0 mg/kg/injection, schedule: Q01DX001 (ip), vehicle: other)?
A: 97 % of control

Q: `COc1cccc(C(=O)c2cc(O)c3c(c2O)CC(C(C)=O)CC3=O)c1C#N` (centres undefined) was tested. Which T/C (dose: 50.0 mg/kg/injection, schedule: Q01DX001 (ip), vehicle: saline with Tween-80) did it give?
A: 100 % of control

Q: What about the T/C (dose: 100.0 mg/kg/injection, schedule: Q01DX001 (ip), vehicle: saline with Tween-80) of the same compound?
A: 94 % of control

Q: And the T/C (dose: 200.0 mg/kg/injection, schedule: Q01DX001 (ip), vehicle: saline with Tween-80)?
A: 98 % of control

Q: Which results are given for `COc1ccc2c(C)cc(C)nc2n1`?
A: T/C (dose: 75.0 mg/kg/injection, schedule: Q04DX002 (ip), vehicle: saline): 104 % of control; T/C (dose: 150.0 mg/kg/injection, schedule: Q04DX002 (ip), vehicle: saline): 112 % of control; T/C (dose: 300.0 mg/kg/injection, schedule: Q04DX002 (ip), vehicle: saline): 108 % of control
